Experimental data reported in patent US20230406838A1, “MUTANT SELECTIVE EGFR INHIBITORS AND METHODS OF USE THEREOF” (Dana-Farber Cancer Institute, Inc., priority 2020, published 2023).
pIC50: −log10 of the molar value.

How the values were obtained:
EGFR L858R = EGFR L858R (Homo sapiens, UniProt P00533, L858R); assay: HTRF-based EGFR biochemical assay, L858R; details: 100 μM ATP, enzyme 0.1 nM
Description: (§1) EGFR biochemical activity measurements were carried out using the homogeneous time-resolved fluorescence (HTRF) assay (Cisbio). Inhibitors and DMSO normalizations were first dispensed to empty black low-volume 384-well plates (Corning) with D300 digital liquid dispenser (HP). All reactions were carried out at room temperature and solutions were added to plates with a Multidrop Combi Reagent Dispenser (ThermoFisher). The reaction mixture (10 μL final volume) contained 1 μM tyrosine kinase peptide-biotin substrate and mutant EGFR in a reaction buffer (50 mM HEPES pH 7.0, 5 mM MgCl2, 1 mM MnCl2, 0.01% BSA, 2 mM TCEP, 0.1 mM NaVO4). […] Enzyme reaction solution (2× concentrations, 5 μL) was added to 384-well plates containing compounds and incubated for 30 mins. Enzyme reactions were initiated with the addition of 5 μL of ATP to a final concentration of 100 μM and reacted for 20 mins.

EGFR L858R/T790M = EGFR L858R/T790M (Homo sapiens, UniProt P00533, L858R/T790M); assay: HTRF-based EGFR biochemical assay, L858R/T790M; details: 100 μM ATP, enzyme 0.02 nM
EGFR L858R/T790M, sequence (P00533 25-1210 T790M/L858R): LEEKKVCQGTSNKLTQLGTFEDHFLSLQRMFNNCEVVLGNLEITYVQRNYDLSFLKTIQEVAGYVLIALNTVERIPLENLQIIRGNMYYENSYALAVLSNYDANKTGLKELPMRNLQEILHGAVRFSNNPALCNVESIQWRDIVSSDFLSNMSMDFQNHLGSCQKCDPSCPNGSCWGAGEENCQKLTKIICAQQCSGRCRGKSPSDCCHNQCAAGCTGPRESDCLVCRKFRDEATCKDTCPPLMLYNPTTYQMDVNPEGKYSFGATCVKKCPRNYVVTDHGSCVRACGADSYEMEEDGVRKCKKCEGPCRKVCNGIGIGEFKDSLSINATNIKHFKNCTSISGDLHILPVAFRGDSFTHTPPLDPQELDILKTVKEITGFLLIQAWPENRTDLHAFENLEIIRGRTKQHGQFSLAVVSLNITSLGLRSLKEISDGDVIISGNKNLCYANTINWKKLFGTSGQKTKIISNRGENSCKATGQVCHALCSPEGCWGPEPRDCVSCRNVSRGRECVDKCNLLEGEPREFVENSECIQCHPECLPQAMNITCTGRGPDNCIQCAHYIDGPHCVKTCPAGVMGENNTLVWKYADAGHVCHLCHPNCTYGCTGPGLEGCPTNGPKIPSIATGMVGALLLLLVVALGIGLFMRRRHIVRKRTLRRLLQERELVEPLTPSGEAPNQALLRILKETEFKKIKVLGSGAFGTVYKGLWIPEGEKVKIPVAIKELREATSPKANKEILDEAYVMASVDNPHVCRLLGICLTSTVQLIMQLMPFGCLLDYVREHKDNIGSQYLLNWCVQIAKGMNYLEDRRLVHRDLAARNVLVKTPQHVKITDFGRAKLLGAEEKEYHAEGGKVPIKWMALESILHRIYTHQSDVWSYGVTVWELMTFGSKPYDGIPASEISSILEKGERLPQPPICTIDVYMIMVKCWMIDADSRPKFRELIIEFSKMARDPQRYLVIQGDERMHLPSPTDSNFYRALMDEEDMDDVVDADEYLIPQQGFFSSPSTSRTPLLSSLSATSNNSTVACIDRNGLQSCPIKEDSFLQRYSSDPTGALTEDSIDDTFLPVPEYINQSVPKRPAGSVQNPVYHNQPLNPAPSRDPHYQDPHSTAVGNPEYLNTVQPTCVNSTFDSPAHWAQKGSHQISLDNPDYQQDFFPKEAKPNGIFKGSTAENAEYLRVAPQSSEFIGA
Description: as §1

EGFR WT = EGFR WT (Homo sapiens, UniProt P00533); assay: HTRF-based EGFR biochemical assay, WT; details: 100 μM ATP, enzyme 5 nM
EGFR WT, sequence (P00533 25-1210): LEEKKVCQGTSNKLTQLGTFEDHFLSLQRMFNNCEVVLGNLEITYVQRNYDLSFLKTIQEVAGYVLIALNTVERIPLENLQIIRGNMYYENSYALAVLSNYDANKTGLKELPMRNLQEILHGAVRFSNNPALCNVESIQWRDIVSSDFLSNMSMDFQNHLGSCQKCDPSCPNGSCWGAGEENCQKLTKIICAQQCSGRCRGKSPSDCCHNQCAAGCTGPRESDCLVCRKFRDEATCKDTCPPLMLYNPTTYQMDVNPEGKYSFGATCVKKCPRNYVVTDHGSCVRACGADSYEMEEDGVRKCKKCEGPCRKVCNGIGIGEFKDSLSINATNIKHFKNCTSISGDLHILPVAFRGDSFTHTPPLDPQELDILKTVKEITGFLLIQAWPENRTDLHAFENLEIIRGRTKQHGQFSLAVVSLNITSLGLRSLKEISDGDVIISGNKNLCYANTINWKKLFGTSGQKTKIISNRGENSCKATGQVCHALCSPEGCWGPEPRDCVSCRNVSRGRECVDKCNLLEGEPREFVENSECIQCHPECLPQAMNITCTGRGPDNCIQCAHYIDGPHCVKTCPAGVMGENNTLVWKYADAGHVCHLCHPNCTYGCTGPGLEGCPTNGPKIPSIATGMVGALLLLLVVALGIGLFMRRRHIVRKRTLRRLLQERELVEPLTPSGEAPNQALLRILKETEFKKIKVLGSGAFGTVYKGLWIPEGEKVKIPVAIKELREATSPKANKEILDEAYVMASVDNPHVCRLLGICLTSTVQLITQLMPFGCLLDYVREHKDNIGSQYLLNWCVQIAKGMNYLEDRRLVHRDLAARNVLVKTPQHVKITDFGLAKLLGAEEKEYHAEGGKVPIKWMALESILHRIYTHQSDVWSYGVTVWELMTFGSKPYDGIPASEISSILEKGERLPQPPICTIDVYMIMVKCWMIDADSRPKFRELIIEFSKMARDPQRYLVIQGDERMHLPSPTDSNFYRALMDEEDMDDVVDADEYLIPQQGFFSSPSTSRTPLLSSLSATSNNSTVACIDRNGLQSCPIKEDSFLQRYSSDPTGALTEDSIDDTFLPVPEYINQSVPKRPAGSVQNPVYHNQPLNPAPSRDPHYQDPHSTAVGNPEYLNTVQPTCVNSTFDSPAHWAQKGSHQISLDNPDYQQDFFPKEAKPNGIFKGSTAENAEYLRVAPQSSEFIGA

EGFR L858R/T790M/C797S = EGFR L858R/T790M/C797S (Homo sapiens, UniProt P00533, C797S/L858R/T790M); assay: HTRF-based EGFR biochemical assay, L858R/T790M/C797S; details: 100 μM ATP, enzyme 0.02 nM
EGFR L858R/T790M/C797S, sequence (P00533 25-1210 T790M/C797S/L858R): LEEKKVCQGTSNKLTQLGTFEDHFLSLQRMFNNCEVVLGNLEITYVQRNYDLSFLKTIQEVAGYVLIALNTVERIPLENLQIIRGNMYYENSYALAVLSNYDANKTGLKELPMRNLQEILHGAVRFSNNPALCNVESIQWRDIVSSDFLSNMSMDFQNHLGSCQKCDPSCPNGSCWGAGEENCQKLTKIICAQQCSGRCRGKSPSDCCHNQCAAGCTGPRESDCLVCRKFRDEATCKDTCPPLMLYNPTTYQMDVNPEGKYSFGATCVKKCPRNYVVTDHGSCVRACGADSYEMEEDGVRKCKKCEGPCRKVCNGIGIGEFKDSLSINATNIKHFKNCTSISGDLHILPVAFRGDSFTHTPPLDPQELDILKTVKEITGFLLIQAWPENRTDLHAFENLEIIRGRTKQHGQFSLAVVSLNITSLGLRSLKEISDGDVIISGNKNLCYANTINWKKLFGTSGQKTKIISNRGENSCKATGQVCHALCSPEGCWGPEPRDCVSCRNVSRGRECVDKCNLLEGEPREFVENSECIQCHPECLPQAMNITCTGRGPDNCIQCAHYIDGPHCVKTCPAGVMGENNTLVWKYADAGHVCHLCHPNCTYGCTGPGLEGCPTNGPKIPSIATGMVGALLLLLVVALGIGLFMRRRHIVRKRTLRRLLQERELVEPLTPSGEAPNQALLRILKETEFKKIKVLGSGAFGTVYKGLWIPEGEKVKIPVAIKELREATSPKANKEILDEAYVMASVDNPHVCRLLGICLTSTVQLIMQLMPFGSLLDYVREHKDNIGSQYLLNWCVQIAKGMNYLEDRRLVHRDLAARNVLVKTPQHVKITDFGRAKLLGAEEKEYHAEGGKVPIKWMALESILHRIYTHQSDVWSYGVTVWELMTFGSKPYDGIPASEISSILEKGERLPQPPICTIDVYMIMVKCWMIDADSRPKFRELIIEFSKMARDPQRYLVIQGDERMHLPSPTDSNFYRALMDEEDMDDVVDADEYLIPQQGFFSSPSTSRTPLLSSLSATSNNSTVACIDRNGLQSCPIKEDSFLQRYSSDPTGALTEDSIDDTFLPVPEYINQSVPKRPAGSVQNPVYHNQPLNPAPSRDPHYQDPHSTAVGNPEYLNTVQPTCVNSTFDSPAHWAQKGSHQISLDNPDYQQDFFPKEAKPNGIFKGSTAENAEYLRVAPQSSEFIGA
Description: as §1

EGFR L858R, sequence (P00533 25-1210 L858R): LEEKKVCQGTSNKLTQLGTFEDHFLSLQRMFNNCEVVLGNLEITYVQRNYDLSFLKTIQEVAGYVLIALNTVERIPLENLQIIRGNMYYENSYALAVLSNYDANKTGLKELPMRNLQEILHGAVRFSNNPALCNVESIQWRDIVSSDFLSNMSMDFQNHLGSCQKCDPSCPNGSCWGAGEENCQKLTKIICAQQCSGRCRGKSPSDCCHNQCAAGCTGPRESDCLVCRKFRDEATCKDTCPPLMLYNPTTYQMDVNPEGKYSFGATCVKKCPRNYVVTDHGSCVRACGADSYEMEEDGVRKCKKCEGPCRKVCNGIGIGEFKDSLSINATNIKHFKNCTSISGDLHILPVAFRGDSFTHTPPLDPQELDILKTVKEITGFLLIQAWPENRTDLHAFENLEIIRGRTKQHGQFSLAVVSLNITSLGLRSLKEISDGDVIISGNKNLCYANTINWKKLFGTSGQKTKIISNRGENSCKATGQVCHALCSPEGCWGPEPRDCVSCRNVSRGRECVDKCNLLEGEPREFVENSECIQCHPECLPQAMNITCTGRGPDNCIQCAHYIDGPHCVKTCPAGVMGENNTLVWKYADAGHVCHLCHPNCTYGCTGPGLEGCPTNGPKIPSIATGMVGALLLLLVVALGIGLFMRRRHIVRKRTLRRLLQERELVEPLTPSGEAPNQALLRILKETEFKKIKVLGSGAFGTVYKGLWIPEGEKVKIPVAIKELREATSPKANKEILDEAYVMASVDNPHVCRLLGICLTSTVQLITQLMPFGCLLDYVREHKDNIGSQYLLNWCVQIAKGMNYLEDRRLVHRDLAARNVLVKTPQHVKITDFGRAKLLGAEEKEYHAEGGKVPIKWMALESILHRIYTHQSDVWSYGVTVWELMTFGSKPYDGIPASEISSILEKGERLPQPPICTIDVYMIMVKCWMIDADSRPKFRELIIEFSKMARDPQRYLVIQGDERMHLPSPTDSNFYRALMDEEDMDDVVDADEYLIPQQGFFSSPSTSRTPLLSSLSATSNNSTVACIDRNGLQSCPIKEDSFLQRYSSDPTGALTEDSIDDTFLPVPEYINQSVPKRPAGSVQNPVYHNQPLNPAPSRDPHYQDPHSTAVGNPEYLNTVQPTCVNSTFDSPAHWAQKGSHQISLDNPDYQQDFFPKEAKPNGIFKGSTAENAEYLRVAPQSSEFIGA

Row | Structure (SMILES) | pIC50 (EGFR L858R) | pIC50 (EGFR L858R/T790M) | pIC50 (EGFR WT) | pIC50 (EGFR L858R/T790M/C797S)
1 | CSc1nc(-c2cccc(NC(=O)Nc3ccccc3)c2)c(-c2ccnc(NC(C)=O)c2)[nH]1 [Compound 005, N-(4-(2-(methylthio)-4-(3-(3-phenylureido)phenyl)-1H-imidazol-5-yl)pyridin-2-yl)acetamide] | 5.44 | 5.43 | – | –
2 | CSc1nc(-c2cccc(NC(=O)c3c(F)cccc3F)c2)c(-c2ccnc(Nc3ccccc3)c2)[nH]1 [Compound 010, 2,6-difluoro-N-(3-(2-(methylthio)-5-(2-(phenylamino)pyridin-4-yl)-1H-imidazol-4-yl)phenyl)benzamide] | 7.49 | 5.62 | 7.82 | –
3 | CSc1nc(-c2cc(NC(=O)c3c(F)cccc3F)cs2)c(-c2ccnc(NC(C)=O)c2)[nH]1 [Compound 011, N-(5-(5-(2-acetamidopyridin-4-yl)-2-(methylthio)-1H-imidazol-4-yl)thiophen-3-yl)-2,6-difluorobenzamide] | < 4.00 | < 4.00 | – | –
4 | CSc1nc(-c2cc(NC(=O)Cc3ccccc3)cs2)c(-c2ccnc(NC(C)=O)c2)[nH]1 [Compound 012, N-(5-(5-(2-acetamidopyridin-4-yl)-2-(methylthio)-1H-imidazol-4-yl)thiophen-3-yl)-2-phenylacetamide] | < 4.00 | < 4.00 | – | –
5 | CSc1nc(-c2cccc(NC(=O)Nc3cccc(C(F)(F)F)c3)c2)c(-c2ccnc(NC(C)=O)c2)[nH]1 [Compound 016, N-(4(2-(methylthio)-4-(3-(3-(3-(trifluoromethyl)phenyl)ureido)phenyl)-1H-imidazol-5-yl)pyridin-2-yl)acetamide] | 6.29 | 6.07 | – | –
6 | CSc1nc(-c2cccc(NC(=O)Nc3ccc(F)cc3)c2)c(-c2ccnc(NC(C)=O)c2)[nH]1 [Compound 017, N-(4-(4-(3-(3-(4-fluorophenyl)ureido)phenyl)-2-(methylthio)-1H-imidazol-5-yl)pyridin-2-yl)acetamide] | 5.38 | 5.28 | – | –
7 | CSc1nc(-c2ccccc2NC(=O)Nc2ccc(Br)cc2)c(-c2ccnc(NC(C)=O)c2)[nH]1 [Compound 019, N-(4-(4-(2(3-(4-bromophenyl)ureido)phenyl)-2-(methylthio)-1H-imidazol-5-yl)pyridin-2-yl)acetamide] | < 4.00 | < 4.00 | – | –
8 | CSc1nc(-c2ccccc2NC(=O)c2cccc3[nH]ccc23)c(-c2ccnc(NC(C)=O)c2)[nH]1 [Compound 023, N-(2-(5-(2-acetamidopyridin-4-yl)-2-(methylthio)-1H-imidazol-4-yl)phenyl)-1H-indole-4-carboxamide] | < 4.00 | < 4.00 | – | –
9 | COc1cccc(C(=O)Nc2ccccc2-c2nc(SC)[nH]c2-c2ccnc(NC(C)=O)c2)c1 [Compound 025, N-(2-(5-(2-acetamidopyridin-4-yl)-2-(methylthio)-1H-imidazol-4-yl)phenyl)-3-methoxybenzamide] | < 4.00 | < 4.00 | – | –
10 | CSc1nc(-c2ccccc2NC(=O)c2ccco2)c(-c2ccnc(NC(C)=O)c2)[nH]1 [Compound 027, N-(2-(5-(2-acetamidopyridin-4-yl)-2-(methylthio)-1H-imidazol-4-yl)phenyl)furan-2-carboxamide] | < 4.00 | < 4.00 | – | –
11 | CSc1nc(-c2ccccc2NC(=O)CCc2ccccc2)c(-c2ccnc(NC(C)=O)c2)[nH]1 [Compound 033, N-(2(5-(2-acetamidopyridin-4-yl)-2-(methylthio)-1H-Imidazol-4-yl)phenyl)-3-phenylpropanamide] | < 4.00 | < 4.00 | – | –
12 | CSc1nc(-c2ccc(F)c(NC(=O)Cc3c(F)cccc3F)c2)c(-c2ccnc(NC(C)=O)c2)[nH]1 [Compound 052, N-(5-(5-(2-acetamidopyridin-4-yl)-2-(methylthio)-1H-Imidazol-4-yl)-2-fluorophenyl)-2-(2,6-difluorophenyl)acetamide] | 6.01 | 5.72 | – | –
13 | CSc1nc(-c2cccc(NC(=O)Cc3c(F)cccc3F)c2)c(-c2ccnc(NC(C)=O)c2)[nH]1 [Compound 053, N-(3-(5-(2-acetamidopyridin-4-yl)-2-(methylthio)-1H-Imidazol-4-yl)phenyl)-2-(2,6-difluorophenyl)acetamide] | 5.89 | 6.10 | – | –
14 | CSc1nc(-c2cccc3c2CCC3NC(=O)c2c(F)cccc2F)c(-c2ccnc(NC(C)=O)c2)[nH]1 (centres unmarked) [Compound 055, N-(4-(5-(2-acetamidopyridin-4-yl)-2-(methylthio)-1H-imidazol-4-yl)-2,3-dihydro-1H-inden-1-yl)-2,6-difluorobenzamide] | < 4.00 | < 4.00 | – | –
15 | CSc1nc(-c2cccc3c2CCC3NC(=O)c2cc(F)cc(F)c2)c(-c2ccnc(NC(C)=O)c2)[nH]1 (centres unmarked) [Compound 057, N-(4-(5-(2-acetamidopyridin-4-yl)-2-(methylthio)-1H-imidazol-4-yl)-2,3-dihydro-1H-inden-1-yl)-3,5-difluorobenzamide] | < 4.00 | < 4.00 | – | –
16 | CSc1nc(-c2cccc(NC(=O)c3cc(O)ccc3F)c2)c[nH]1 [Compound 060] | – | < 4.00 | < 4.00 | < 4.00

The remaining lines, values ahead:

Row | pIC50 (EGFR L858R) | pIC50 (EGFR L858R/T790M) | pIC50 (EGFR WT) | pIC50 (EGFR L858R/T790M/C797S) | Structure (SMILES)
17 | 5.38 | 4.78 | – | – | CSc1nc(-c2cccc(NC(=O)C3CCCC3)c2)c(-c2ccnc(NC(C)=O)c2)[nH]1 [Compound 001, N-(3-(5-(2-acetamidopyridin-4-yl)-2-(methylthio)-1H-imidazol-4-yl)phenyl)cyclopentane-carboxamide]
18 | 5.37 | 4.84 | – | – | CSc1nc(-c2cccc(NC(=O)C3CC3)c2)c(-c2ccnc(NC(C)=O)c2)[nH]1 [Compound 003, N-(3-(5-(2-acetamidopyridin-4-yl)-2-(methylthio)-1H-imidazol-4-yl)phenyl)cyclopropane-carboxamide]
19 | 5.19 | 5.23 | – | – | CSc1nc(-c2cccc(NC(=O)Nc3ccc(Br)cc3)c2)c(-c2ccnc(NC(C)=O)c2)[nH]1 [Compound 015, N-(4-(4-(3-(3-(4-bromophenyl)ureido)phenyl)-2-(methylthio)-1H-imidazol-5-yl)pyridin-2-yl)acetamide]
20 | 5.80 | 5.66 | – | – | CSc1nc(-c2cccc(NC(=O)Nc3ccc(F)c(Cl)c3)c2)c(-c2ccnc(NC(C)=O)c2)[nH]1 [Compound 018]
21 | < 4.00 | < 4.00 | – | – | CSc1nc(-c2cccc(NC(=O)Nc3ccccc3)c2)c(-c2ccnc(NC(C)=O)c2)[nH]1 [Compound 020, N-(4-(2-(methylthio)-4-(3-(3-phenylureido)phenyl)-1H-imidazol-5-yl)pyridin-2-yl)acetamide]
22 | < 4.00 | < 4.00 | – | – | CSc1nc(-c2ccccc2NC(=O)C2CCCC2)c(-c2ccnc(NC(C)=O)c2)[nH]1 [Compound 022, N-(2(5-(2-acetamidopyridin-4-yl)-2-(methylthio)-1H-imidazol-4-yl)phenyl)cyclopentane-carboxamide]
23 | < 4.00 | < 4.00 | – | – | CSc1nc(-c2ccccc2NC(=O)c2cc(C)cs2)c(-c2ccnc(NC(C)=O)c2)[nH]1 [Compound 026, N-(2-(5-(2-acetamidopyridin-4-yl)-2-(methylthio)-1H-imidazol-4-yl)phenyl)-4-methyl-thiophene-2-carboxamide]
24 | < 4.00 | < 4.00 | – | – | CSc1nc(-c2ccccc2NC(=O)c2ccccc2O)c(-c2ccnc(NC(C)=O)c2)[nH]1 [Compound 032, N-(2-(5-(2-acetamidopyridin-4-yl)-2-(methylthio)-1H-imidazol-4-yl)phenyl)-2-hydroxybenzamide]
25 | 5.73 | 5.10 | – | – | CSc1nc(-c2cccc(NC(=O)CCc3ccccc3)c2)c(-c2ccnc(NC(C)=O)c2)[nH]1 [Compound 037, N-(3-(5-(2-acetamidopyridin-4-yl)-2-(methylthio)-1H-imidazol-4-yl)phenyl)-3-phenylpropanamide]
26 | < 4.00 | < 4.00 | – | – | CSc1nc(-c2cccc3c2CCC3NC(=O)c2cccc3[nH]ccc23)c(-c2ccnc(NC(C)=O)c2)[nH]1 (centres unmarked) [Compound 056, N-(4(5-(2-acetamidopyridin-4-yl)-2-(methylthio)-1H-imidazol-4-yl)-2,3-dihydro-1H-inden-1-yl)-1H-indole-4-carboxamide]
27 | < 4.00 | < 4.00 | < 4.00 | < 4.00 | CSc1nc(-c2cccc(NC(=O)c3c(F)ccc(O)c3CN3Cc4ccccc4C3=O)c2)c[nH]1 [Compound 058, 6-fluoro-3-hydroxy-N-(3-(2-(methylthio)-1H-imidazol-4-yl)phenyl)-2-((1-oxoisoindolin-2-yl)methyl)benzamide]
28 | 5.51 | < 4.00 | < 4.00 | < 4.00 | CSc1nc(-c2ccnc(NC(C)=O)c2)c(-c2cccc(NC(=O)c3c(F)ccc(O)c3CN3Cc4ccccc4C3=O)c2)n1C [Compound 059, N-(3-(4-(2-acetamidopyridin-4-yl)-1-methyl-2-(methylthio)-1H-imidazol-5-yl)phenyl)-6-fluoro-3-hydroxy-2-((1-oxoisoindolin-2-yl)methyl)benzamide]
